Source: patent US20060069132A1, “Azolecarboxamide herbicides” (priority 2004, published 2006)

Assays:
barnyardgrass [1] = test: Test A pre-/postemergence herbicide test; assay type: in vivo, Echinochloa crus-galli
Procedure, shortened: (§1)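 Pre: seeded sandy loam, directed soil spray, compound in non-phytotoxic solvent + surfactant. Post: 1–2-leaf plants (2–10 cm), sprayed to runoff. Greenhouse ~10 d; visual injury vs untreated, 0–100 scale.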

large crabgrass [2] = test: Test A pre-/postemergence herbicide test; assay type: in vivo, Digitaria sanguinalis
Procedure, shortened: as §1

giant foxtail [3] = test: Test A pre-/postemergence herbicide test; assay type: in vivo, Setaria faberi
Procedure, shortened: as §1

morningglory [4] = test: Test A pre-/postemergence herbicide test; assay type: in vivo, Ipomoea spp.
Procedure, shortened: as §1

redroot pigweed = test: Test A pre-/postemergence herbicide test; assay type: in vivo, Amaranthus retroflexus
Procedure, shortened: as §1

velvetleaf [5] = test: Test A pre-/postemergence herbicide test; assay type: in vivo, Abutilon theophrasti
Procedure, shortened: as §1

barnyardgrass [6] = test: Test B pre-/postemergence herbicide test; assay type: in vivo, Echinochloa crus-galli; settings: for Barnyardgrass plant response rating: postemergence, visual rating, scale 0 (no effect) to 100 (complete control)
Procedure, shortened: (§2)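 Test chemicals in a non-phytotoxic solvent mixture with surfactant were applied preemergence to seeded species and postemergence to plants 2-18 cm tall (1- to 4-leaf stage); rice and barnyardgrass were also tested in a flooded paddy at the 2-leaf stage. Visual rating versus controls after 13-15 days in greenhouse, scale 0 (no effect) to 100 (complete control).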

Surinam grass = test: Test B pre-/postemergence herbicide test; assay type: in vivo, Urochloa decumbens; settings: for Surinam Grass plant response rating: postemergence, visual rating, scale 0 (no effect) to 100 (complete control)
Procedure, shortened: (§3)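 Formulation: non-phytotoxic solvent mix with surfactant. Timing: preemergence on seed and postemergence on 2–18 cm plants, applied concurrently. Readout after 13–15 d greenhouse: visual 0–100 control rating against controls.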

cocklebur = test: Test B pre-/postemergence herbicide test; assay type: in vivo, Xanthium strumarium; settings: for Cocklebur plant response rating: postemergence, visual rating, scale 0 (no effect) to 100 (complete control)
Procedure, shortened: as §2

corn = test: Test B pre-/postemergence herbicide test; assay type: in vivo, Zea mays; settings: for Corn plant response rating: postemergence, visual rating, scale 0 (no effect) to 100 (complete control)
Procedure, shortened: as §3

large crabgrass [7] = test: Test B pre-/postemergence herbicide test; assay type: in vivo, Digitaria sanguinalis; settings: for Crabgrass, Large plant response rating: postemergence, visual rating, scale 0 (no effect) to 100 (complete control)
Procedure, shortened: as §3

giant foxtail [8] = test: Test B pre-/postemergence herbicide test; assay type: in vivo, Setaria faberi; settings: for Foxtail, Giant plant response rating: postemergence, visual rating, scale 0 (no effect) to 100 (complete control)
Procedure, shortened: as §3

lambsquarters = test: Test B pre-/postemergence herbicide test; assay type: in vivo, Chenopodium album; settings: for Lambsquarters plant response rating: postemergence, visual rating, scale 0 (no effect) to 100 (complete control)
Procedure, shortened: as §3

morningglory [9] = test: Test B pre-/postemergence herbicide test; assay type: in vivo, Ipomoea coccinea; settings: for Morningglory plant response rating: postemergence, visual rating, scale 0 (no effect) to 100 (complete control)
Procedure, shortened: as §2

pigweed = test: Test B pre-/postemergence herbicide test; assay type: in vivo, Amaranthus retroflexus; settings: for Pigweed plant response rating: postemergence, visual rating, scale 0 (no effect) to 100 (complete control)
Procedure, shortened: as §3

rice [10] = test: Test B pre-/postemergence herbicide test; assay type: in vivo, Oryza sativa; settings: preemergence
Procedure, shortened: as §3

velvetleaf [11] = test: Test B pre-/postemergence herbicide test; assay type: in vivo, Abutilon theophrasti; settings: for Velvetleaf plant response rating: postemergence, visual rating, scale 0 (no effect) to 100 (complete control)
Procedure, shortened: as §3

blackgrass = test: Test B postemergence herbicide test; assay type: in vivo, Alopecurus myosuroides; settings: postemergence, visual rating, scale 0 (no effect) to 100 (complete control)
Procedure, shortened: (§4)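 Paddy species grown to the 2-leaf stage under flooding; blackgrass sprayed postemergence at 2–18 cm (1- to 4-leaf stage). Plants kept in a greenhouse for 13 to 15 days, then visually rated against controls on 0 (no effect) to 100 (complete control).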

wheat = test: Test B postemergence herbicide test; assay type: in vivo, Triticum aestivum; set-up: key to Wheat plant response rating: 0 = no effect, 100 = complete control; settings: postemergence, visual rating, scale 0 (no effect) to 100 (complete control)
Procedure, shortened: (§5)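 Postemergence plants were sprayed with formulated test chemicals at 2 to 18 cm height (1- to 4-leaf stage); paddy species were grown to the 2-leaf stage. After 13 to 15 days in a greenhouse, injury was rated visually against untreated controls on a 0–100 scale (0 = no effect, 100 = complete control).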

wild oat = test: Test B postemergence herbicide test; assay type: in vivo, Avena fatua; settings: postemergence, visual rating, scale 0 (no effect) to 100 (complete control)
Procedure, shortened: as §5

rice [12] = test: Test B flooded paddy test; assay type: in vivo, Oryza sativa; settings: 1000 g ai/ha, visual rating, scale 0 to 100 (0 no effect, 100 complete control), 13 to 15 days
Procedure, shortened: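 Scale 0–100: zero equals no visible effect, 100 complete control, judged by eye relative to controls. Timing: 13 to 15 days in greenhouse post-treatment. Growth stage at spraying: two leaves (paddy) or one to four leaves, 2–18 cm (postemergence).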

[13] = system: small flower umbrella sedge; test: Test B flooded paddy test; assay type: in vivo, Cyperus difformis; settings: 1000 g ai/ha, visual rating, scale 0 to 100 (0 no effect, 100 complete control), 13 to 15 days
Procedure, shortened: as §4

ducksalad = test: Test B flooded paddy test; assay type: in vivo, Heteranthera limosa; settings: 1000 g ai/ha, visual rating, scale 0 to 100 (0 no effect, 100 complete control), 13 to 15 days
Procedure, shortened: as §4

barnyardgrass [14] = test: Test B flooded paddy test; assay type: in vivo, Echinochloa crus-galli; settings: 1000 g ai/ha, visual rating, scale 0 to 100 (0 no effect, 100 complete control), 13 to 15 days
Procedure, shortened: as §4

[15] = Postemergence, 500 g ai/ha, 0 to 100 scale, 0 no effect, 100 complete control
[16] = Postemergence, 2000 g ai/ha, 0 to 100 scale, 0 no effect, 100 complete control
[17] = Preemergence, 2000 g ai/ha, visual rating, 0 to 100 scale (0 no effect, 100 complete control)
[18] = preemergence, 500 g ai/ha, visual injury, 0 to 100 scale (0 no effect, 100 complete control)
[19] = 125 g ai/ha, 0 = no effect, 100 = complete control, preemergence
[20] = 500 g ai/ha, visual rating 0-100, 0 no effect, 100 complete control, preemergence

CCc1nc(C(C)(C)C)sc1C(=O)Nc1cccc(C(=O)NCC(C)C)c1 [Compound 211]
Barnyardgrass plant response rating (barnyardgrass [1]; [15]): 25 | Plant response rating, Barnyardgrass (barnyardgrass [1]; [16]): 55 | Barnyardgrass plant response rating (barnyardgrass [1]; [17]): 70 | Barnyardgrass plant response rating (barnyardgrass [1]; [18]): 55 | Crabgrass, Large plant response rating (large crabgrass [2]; [15]): 20 | Plant response rating, Crabgrass, Large (large crabgrass [2]; [16]): 30 | Crabgrass, Large plant response rating (large crabgrass [2]; [17]): 85 | Crabgrass, Large plant response rating (large crabgrass [2]; [18]): 75 | Foxtail, Giant plant response rating (giant foxtail [3]; [15]): 20 | Plant response rating, Foxtail, Giant (giant foxtail [3]; [16]): 30 | Foxtail, Giant plant response rating (giant foxtail [3]; [17]): 70 | Foxtail, Giant plant response rating (giant foxtail [3]; [18]): 45 | Morningglory plant response rating (morningglory [4]; [15]): 20 | Plant response rating, Morningglory (morningglory [4]; [16]): 15 | Morningglory plant response rating (morningglory [4]; [17]): 25 | Morningglory plant response rating (morningglory [4]; [18]): 10 | Pigweed plant response rating (redroot pigweed; [15]): 25 | Plant response rating, Pigweed (redroot pigweed; [16]): 25 | Pigweed plant response rating (redroot pigweed; [17]): 40 | Pigweed plant response rating (redroot pigweed; [18]): 30 | Velvetleaf plant response rating (velvetleaf [5]; [15]): 15 | Plant response rating, Velvetleaf (velvetleaf [5]; [16]): 25 | Velvetleaf plant response rating (velvetleaf [5]; [17]): 65 | Velvetleaf plant response rating (velvetleaf [5]; [18]): 25 | Barnyardgrass plant response rating (0 to 100 scale) (barnyardgrass [6]; [19]): 10 | Plant response rating, Barnyardgrass (barnyardgrass [6]; [20]): 50 | Barnyardgrass plant response rating (barnyardgrass [6]; 125 g ai/ha): 10 | Barnyardgrass plant response rating (barnyardgrass [6]; 500 g ai/ha): 10 | Surinam Grass plant response rating (0 to 100 scale) (Surinam grass; [19]): 0 | Plant response rating, Surinam Grass (Surinam grass; [20]): 30 | Surinam Grass plant response rating (Surinam grass; 125 g ai/ha): 10 | Surinam Grass plant response rating (Surinam grass; 500 g ai/ha): 10 | Cocklebur plant response rating (0 to 100 scale) (cocklebur; [19]): 0 | Plant response rating, Cocklebur (cocklebur; [20]): 0 | Cocklebur plant response rating (cocklebur; 125 g ai/ha): 30 | Cocklebur plant response rating (cocklebur; 500 g ai/ha): 60 | Corn plant response rating (0 to 100 scale) (corn; [19]): 0 | Plant response rating, Corn (corn; [20]): 10 | Corn plant response rating (corn; 125 g ai/ha): 10 | Corn plant response rating (corn; 500 g ai/ha): 10 | Crabgrass, Large plant response rating (0 to 100 scale) (large crabgrass [7]; [19]): 10 | Plant response rating, Crabgrass, Large (large crabgrass [7]; [20]): 70 | Crabgrass, Large plant response rating (large crabgrass [7]; 125 g ai/ha): 10 | Crabgrass, Large plant response rating (large crabgrass [7]; 500 g ai/ha): 10 | Foxtail, Giant plant response rating (0 to 100 scale) (giant foxtail [8]; [19]): 10 | Plant response rating, Foxtail, Giant (giant foxtail [8]; [20]): 50 | Foxtail, Giant plant response rating (giant foxtail [8]; 125 g ai/ha): 10 | Foxtail, Giant plant response rating (giant foxtail [8]; 500 g ai/ha): 10 | Lambsquarters plant response rating (0 to 100 scale) (lambsquarters; [19]): 10 | Plant response rating, Lambsquarters (lambsquarters; [20]): 80 | Lambsquarters plant response rating (lambsquarters; 125 g ai/ha): 60 | Lambsquarters plant response rating (lambsquarters; 500 g ai/ha): 70 | Morningglory plant response rating (0 to 100 scale) (morningglory [9]; [19]): 0 | Plant response rating, Morningglory (morningglory [9]; [20]): 10 | Morningglory plant response rating (morningglory [9]; 125 g ai/ha): 10 | Morningglory plant response rating (morningglory [9]; 500 g ai/ha): 30 | Pigweed plant response rating (0 to 100 scale) (pigweed; [19]): 0 | Plant response rating, Pigweed (pigweed; [20]): 30 | Pigweed plant response rating (pigweed; 125 g ai/ha): 10 | Pigweed plant response rating (pigweed; 500 g ai/ha): 30 | Rice plant response rating (0 to 100 scale) (rice [10]; 125 g ai/ha, 0 = no effect, 100 = complete control): 0 | Plant response rating, Rice (rice [10]; 500 g ai/ha, visual rating 0-100, 0 no effect, 100 complete control): 10 | Velvetleaf plant response rating (0 to 100 scale) (velvetleaf [11]; [19]): 0 | Plant response rating, Velvetleaf (velvetleaf [11]; [20]): 10 | Velvetleaf plant response rating (velvetleaf [11]; 125 g ai/ha): 30 | Velvetleaf plant response rating (velvetleaf [11]; 500 g ai/ha): 30 | Blackgrass plant response rating (blackgrass; 125 g ai/ha): 10 | Blackgrass plant response rating (blackgrass; 500 g ai/ha): 10 | Wheat plant response rating (wheat; 125 g ai/ha): 10 | Wheat plant response rating (wheat; 500 g ai/ha): 10 | Oat, Wild plant response rating (wild oat; 125 g ai/ha): 10 | Oat, Wild plant response rating (wild oat; 500 g ai/ha): 10 | Rice plant response rating (rice [12]): 20 | Sedge, Umbrella plant response rating [13]: 30 | Ducksalad plant response rating (ducksalad): 80 | Barnyardgrass plant response rating (barnyardgrass [14]): 20
